For data set [1], the target named is T1, purified human disc type II, PLA2 (Homo sapiens, UniProt P14555).
T1 construct: the purified human disc type II, PLA2; from tissue; host or cells: human vertebral (herniated) disc
As to the kind of experiment: inhibition of purified human disc type II PLA2. The format is biochemical. The procedure: Both PX-13 and PX-18 inhibit the purified human disc type II, PLA2. PLA2 activity was measured as described in Franson et al., Prostaglandins, Leukotrienes and Essential Fatty Acids, 43:63-70, 1991, which is herein incorporated by reference in its entirety.

Data set [2] has as its system cyclooxygenase II. As to the kind of experiment: whole blood eicosanoid release, LPS induction. The data set is classed as cell-based, human. The settings on record: 5 ug/ml E. coli LPS, 6 hours, 37° C. How it is done:
(§1) The following protocol was employed to evaluate effects of PX-18 on production of leukotrienes and prostaglandins by blood cells under basal conditions, with ionophore stimulation of cyclooxygenase type I, and with lipopolysaccharide (LPS) induction of cyclooxygenase type II. Freshly-obtained heparinized blood from medication-free donors is diluted 1:1 with RPMI, and aliquoted in 0.6 ml amounts in sterile polypropylene 12×75 […] tubes. Test drugs are added at appropriate concentrations and diluted in saline with 1% human serum albumin. Control tubes have only diluent or drug vehicle added. Drugs are added five minutes prior to addition of stimulus, at 100×concentrations, (6 μl volumes). This is replicated for 3 racks of tubes, A thru C. A has no stimulus added, and has a 30 minute and 6 hr. tube for each drug concentration. B has 20 uM of the calcium ionophore A23187 added, and is incubated at 37° C. for 30 minutes. C has 5 ug/ml of E. coli strain Bort LPS added, and is incubated at 37° C. for 6 hours. At the end each time period, the appropriate tubes are placed on ice, centrifuged, and 0.4 ml of plasma carefully decanted into a tube containing formic acid and BHT to stop all reactions and preserve eicosanoid products. These tubes are then frozen at −70° C. for up to one week, then applied to Sep-pac mini columns and extracted into methanol. […]

Data set [3] concerns lipoxygenase products such as LTC4. As to the kind of experiment: whole blood production of lipoxygenase products. The format is cell-based, human. The following applies: comparison to MK 592. How it is done:
as §1

Data set [4] relates to drug-resistant P. falciparum strains. The data set can be described thus: growth of the same drug-resistant P. falciparum strains (PX-18). The data set is classed as cell-based, Plasmodium falciparum. The settings on record: for IC50: two strains as described above, which value for which strain not stated.
The test system of data set [5] is basal production of prostaglandins. The data set can be described thus: whole blood eicosanoid release, basal. The format is cell-based, human. The following applies: no stimulus. How it is done: as §1
For data set [6], the system named is cyclooxygenase I. As to the kind of experiment: whole blood eicosanoid release, ionophore stimulation. The format is cell-based, human. The settings on record: 20 uM A23187, 30 minutes. The procedure:
as §1

Data set [7] has as its system pancreatin. As to the kind of experiment: degradation in vitro by pancreatin. The data set is classed as in vitro ADME. The following applies: commercial pancreatic enzyme preparation (Sigma). From the text: The compounds of the present invention are not generally hydrolyzed by pancreatic enzymes and are different from glycerol-based compounds in terms of their chemistry and metabolism. […] The resistance of PX-13 and PX-18 to metabolism by pancreatic enzymes supports their stability after oral administration.

The subject of data set [8] is basophils. As to the kind of experiment: histamine release from basophils (anti-human IgE, diluted blood). The data set is classed as cell-based. How it is done:
The protocol to evaluate the effects of PX-18 on histamine release is described below. Freshly drawn heparinized blood from donors non-medicated for 3 days is diluted 1:5 with PBS containing 1% human serum albumin (diluent). Test drugs are diluted in diluent to 10 times final concentration, and 25 μl per well is added to duplicate wells of round-bottomed microtiter plates. Generally 3-fold dilutions of drug are examined four or five times. 200 μl of diluted blood is then added to each well. 5 minutes later, […] of rabbit anti-human IgE (purchased from Dako) is added per well, to give final concentrations of 1/400 and 1/1200 of antibody. Unstimulated (background release wells) have 25 μl of diluent added. Plates are gently tapped for mixing, then incubated for 30 minutes. After incubation, plates are cooled on ice, spun down in a refrigerated centrifuge, and replaced on ice. 100 μl plasma is removed from each well for assay, and placed in a 1.5 ml Eppendorf tube containing acetylation reagent. Following acetylation, the histamine adduct is quantitated by a sensitive and specific commercial competitive assay, utilizing the competition of enzyme conjugated acetyl-histamine with sample analyte for binding to a specific antibody on the solid phase. A sample of blood is also lysed by repeated freeze/thaw to determine total blood histamine. Results are expressed as a percentage of total blood histamine release. In an acceptable assay maximal release is greater than 45% and background release is less than 15%. Experiments are performed in duplicate or triplicate using separate blood donors.

Data set [9] concerns lipoxygenase and cyclooxygenase. The data set can be described thus: lipoxygenase and cyclooxygenase metabolites with exogenous arachidonic acid. The data set is classed as cell-based. The settings on record: exogenous arachidonic acid added. An excerpt:
The comparison is to MK 592, a selective lipoxygenase inhibitor.

The test system of data set [10] is human blood cells. As to the kind of experiment: preservation of whole blood (LDH and hemoglobin release). The data set is classed as cell-based. The following applies: 20 uM. The procedure:
The effect of PX-13 and mepacrine on whole blood cell viability were tested as a function of time of storage.
Heparinized human blood was centrifuged at 400×g and the resulting plasma was removed and replaced with an equal volume of Dulbecco's medium. The resuspended cells were then incubated at 37° C. for 0-72 hrs. in a shaking water bath. At the indicated times, a 0.8 ml aliquot was removed and centrifuged at 400×g to sediment cells. Appearance of lactate dehydrogenase (LDH) and hemoglobin in the supernate was indicative of cell injury. PX-13 and mepacrine stabilized cells and decreased the injury as evidenced by diminished levels of LDH and hemoglobin in the supernate. This is expressed as percent protection.

Data set [11] in a line: small bowel storage in perfusate solution, tissue weight. The following applies: 24 and 48 hours in the perfusate solution. The arrangement: species or system rat. The procedure:
These drugs were also tested for their ability to enhance the preservation of tissues stored for subsequent transplantation. […] The graft was then transplanted into rats with or without intravenous (IV) infusion of 20 mg/kg PX-13 or mepacrine at the time of transplantation.

Data set [12] concerns larval forms of an animal filarid. As to the kind of experiment: molting of larval forms of a filarid. From the text: Infections caused by parasites constitute a major public health problem throughout the world for humans and animals, annually resulting in significant incidence of disease, suffering and death. Parasites such as those that cause malaria and other protozoal parasites of animals and humans are especially troublesome.

Data set [13] relates to small bowel graft. The data set can be described thus: small bowel transplantation ischemia-reperfusion injury. The data set is classed as in vivo, rat. How it is done:
(§2) These drugs were also tested for their ability to enhance the preservation of tissues stored for subsequent transplantation. The small bowel was removed from rats, washed free of luminal contents and the tissue stored in University of Wisconsin (UW) preservative media ±40 uM PX-13 or mepacrine for 48 hrs. The graft was then transplanted into rats with or without intravenous (IV) infusion of 20 mg/kg PX-13 or mepacrine at the time of transplantation.

Data set [14] can be described thus: peroxidation (malondialdehyde formation) of homogenized rat bowel. The procedure:
as §2, with “of transplantation. Upon transplantation, the bowel is immediately injured as evidenced by tissue darkening within two minutes. […] Both PX-13 and mepacrine inhibit the peroxidation (malondialdehyde formation) of homogenized rat bowel, an indication that the membrane-stabilizing, PLA2-inhibitors, also have anti-oxidant activity.” for “of transplantation.”

The test system of data set [15] is PLA2 activity in extracts of rat bowel. As to the kind of experiment: PLA2 activity in extracts of rat bowel. The data set is classed as biochemical.

Values after ≈ are worked out from the molar mass of the structure shown. “Also recorded” adds a separate entry of the source. Read-outs that look alike come from different tables or passages of the source.

T1 sequence (P14555 21-144): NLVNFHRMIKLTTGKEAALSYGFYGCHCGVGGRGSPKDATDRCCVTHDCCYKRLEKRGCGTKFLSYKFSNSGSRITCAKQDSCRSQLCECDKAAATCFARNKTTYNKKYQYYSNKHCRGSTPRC

Consider `CCCCCCCC/C=C\CCCCCCCC(=O)OCCN(CCOC(=O)CCCCCCC/C=C\CCCCCCCC)CCS(=O)(=O)O` [PX-18, 2-[N,N-Bis(2-oleoyloxyethyl)amino]-1-ethanesulfonic acid], for which the IC50 in [1] was determined as 300 nM; in data set [4] (Plasmodium falciparum, read-out: IC50) it was 1.3 µg/mL (≈ 1.75 µM); in data set [4], 2.4 µg/mL (≈ 3.23 µM). In addition, the “inhibition of cytokine-inducible cyclooxygenase II” value in data set [2] is recorded as “strongly inhibit”. The “production of lipoxygenase products such as LTC4” value in data set [3] is given as “inhibited”. For the same molecule, the “effectiveness relative to PX-13” value in data set [4] is listed as 10 times. Further, the “inhibition of basal production of prostaglandins” value in [5] was “even less or no inhibition”. Besides, the “inhibition of constitutive cyclooxygenase I” value in data set [6] is given as “less inhibition”. In addition, the “degradation in vitro by pancreatin” value in data set [7] is “resistant to degradation”. Moreover, in data set [8], the “efficacy relative to cromolyn” value is “more efficacious than cromolyn”. For the same molecule, in data set [8], the “potency relative to epinephrine” value is given as “equipotent to epinephrine”. Moreover, the degranulation of basophils result in data set [8] (stimulus antibody to surface-bound IgE) was “inhibits”. Moreover, the “production of lipoxygenase and cyclooxygenase metabolites” value in [9] was “does not inhibit”.

`CCN(CC)CCCC(C)Nc1c2ccc(Cl)cc2nc2ccc(OC)cc12` (centres unmarked) [mepacrine, reference compound]: the figures for the “Percent Protection Hemoglobin” value in [10] (48 hr) and in data set [10] (72 hr) were 61% and 45%, respectively. In addition, the “Percent Protection LDH” value was found to be 58% in data set [10] (48 hr, 37° C.) and 27% in [10] (72 hr). Also, the “weight of the tissues after storage” value in data set [11] is “reduced weight”. Further, the “molting of larval forms” value in data set [12] is on record as “significantly reduced”. For the same molecule, in [13] (40 uM in UW media 48 hrs, with or without 20 mg/kg IV at transplantation), the “gross and microscopic injury to tissue” value was “dramatically reduced”. Moreover, the “protection against ischemia and reperfusion injury” value in [13] (small bowel transplantation) is listed as “protect; also recorded: some protection although not as great as with PX-13”. The “peroxidation (malondialdehyde formation)” value in data set [14] is “inhibit”. Moreover, in data set [15], the “inhibition of PLA2 activity” value is given as “inhibited”.

The term IC50 denotes the midpoint of a concentration-inhibition curve.

For the origin of these results see US6423855B1, “Cytoprotective compounds” (Virginia Commonwealth University, priority 1996, dated 2002).
